From US20100130945A1, “TREATMENT OF TISSUE VIA APPLICATION OF MAGNETIC FIELD” (priority 2006, published 2010)

Tested on: isolated cardiac myocytes
Experiment: Ca2+ transients (indo-1 fluorescence ratio) in isolated cardiac myocytes in culture, with drug and 16 Hz alternating magnetic field
Assay type: cell-based, rat
Description: Cardiac myocytes were extracted in order to study intracellular free calcium ([Ca^2+]i) shifts as a result of exposure to alternating magnetic field. This was estimated from indo-1 fluorescence using the ratio method. […] The hearts were minced and then gently agitated in a solution of proteolytic enzymes, RDB. The RDB was diluted 1:100 in Ca^2+ and Mg^2+ free PBS at 25° C. for a few cycles of 10 minutes each, Dulbecco's modified Eagle's medium (DMEM) supplemented with inactivated 10% horse serum (Biological Industries, Kibbutz Beit Haemek, Israel), and 0.5% chick embryo extract was added to the supernatant suspensions containing dissociated cells. The mixture was centrifuged at 300 g for 5 minutes. The supernatant phase was discarded and the cells were resuspended in the same medium. The suspensions of the cells were diluted to 1.0×10^6 cells/ml and were placed in 35-mm plastic culture dishes on collagen/gelatin coated cover glasses. The culture was incubated in a humidified atmosphere of 5% CO2, 95% air at 37° C. All experiments were performed at day 4 in culture. In a second set of experiments the specificity of the myocyte ion channels (KATP) was tested by inducing exposure alternating magnetic field of 16 Hz, that were delivered for 10 minutes of base line (n=10). Following baseline recording, the channels were blocked by the addition to the dish 5 μM of Glibenclamide and alternating magnetic field was delivered for an additional 20 minutes. In the third setup of the experiment the amount of 5 μM of Glibenclamide was primarily added (n=10), to be followed by exposure to alternating magnetic field of 20 min. In the fourth phase of the experimental setup 3 μM of Nicorandil, a potassium channel opener (KCO) were added (n=10), following 10 minutes, alternating magnetic field was exposure was introduced for 20 minutes. In the fifth phase of the experiment alternating magnetic field was applied for 20 minutes followed by introduction of 3 μM of Nicorandil (n=5). Intracellular free calcium concentration [Ca^2+], was estimated from indo-1 fluorescence using the ratio method previously described before by Grynkiewicz et al (1985). Following incubation, the cells were rinsed twice with glucose enriched PBS and transferred to a chamber on the stage of a Zeiss inverted epifluorescent microscope. Indo-1-AM was excited at 355 nm and the emitted light was then split by a dichroic mirror to two photomultipliers, with input filters at 405 and 495 nm. The fluorescence ratio of 405/495 nm, which is proportional to [Ca2+] was fed into a computer program. The time integral of Ca^2+ Influx was determined as area under the curve via a program, which gives the integral during any specified time window. From this value the baseline offset, measured at the systolic and diastolic phase, were subtracted. Baseline data from calcium transients were normalized to 100 percent and all values were presented as percent change from baseline. Mean and SD were calculated. A P≦0.05 was considered statistically significant.

SMILES | change of amplitude of Ca2+ transients (widening) with glibenclamide (5 μM Glibenclamide added, before magnetic field, percent change from baseline, n=10, FIG. 8B) | change of amplitude of Ca2+ transients (narrowing) with glibenclamide following 20 minutes of alternating magnetic field (5 μM Glibenclamide then 20 min field of 16 Hz, 80 nT, n=10, FIG. 8C) | effect on calcium ions efflux from myocytes in cultures following exposure to 16 Hz magnetic field (low intensities of 16 Hz magnetic field, KATP channel blocker) | change of amplitude of Ca2+ transients (narrowing) with nicorandil (3 μM Nicorandil added, before magnetic field, percent change from baseline, FIG. 9B) | change of amplitude of Ca2+ transients (narrowing) with nicorandil following 20 minutes of alternating magnetic field (3 μM Nicorandil then 20 min field of 16 Hz, 80 nT, n=4, FIG. 9C) | combination of magnetic field exposure and KCO administration (nicorandil plus alternating magnetic field, 15.95 Hz, FIGS. 9A-C)
COc1ccc(Cl)cc1C(=O)NCCc1ccc(S(=O)(=O)NC(=O)NC2CCCCC2)cc1 [glibenclamide] | +30%±9% | −24%±6% | counteracting effect |  |  | 
O=C(NCCO[N+](=O)[O-])c1cccnc1 [nicorandil] |  |  |  | −58%±7% | −63%±3% | synergistic effect
